# Tests used:
# human red blood cells = test: Hemolysis in human blood; settings: 100 μM, 45 min, 37° C.
# HepG2 cells = settings: human, 72 h
# in vitro = settings: human
# [1] = tested on: K. pneumoniae (ATCC 43816); test: Checkerboard potentiation assay with novobiocin; format: cell-based
# Description: (§1) Bacterial strains and culture conditions. The following bacterial strains were used within this study; A. baumannii (ATCC 17978), K. pneumoniae (ATCC 43816), K. pneumoniae (ATCC 43816, expressing pGDP2:mcr-1), P. aeruginosa (PA01). Bacterial growth was in cation-adjusted Mueller-Hinton broth (MHB) at 37° C., and inoculum was prepared according to CLSI protocol (CLSI 2015).
# (§2) Potentiation assays. Checkerboard analyses were conducted with each drug serially diluted at eight concentrations to create an 8×8 matrix. At least two biological replicates were done for each combination, and the means were used for FIC calculation. The FIC for each drug was calculated by dividing the concentration of the drug in the presence of codrug in a combination for a well showing <10% growth by the MIC for that drug alone. The FIC index (FICI) is the sum of the two FICs, with an FIC index≤0.5 deemed synergistic.
# (§3) To probe the spectrum of activity of the present analogs beyond A. baumannii, their interactions with novobiocin were assessed against the high-priority Gram-negative pathogens Klebsiella pneumoniae and P. aeruginosa (FIG. 5).
# P. aeruginosa (PA01) = test: Checkerboard potentiation assay with novobiocin; format: cell-based
# Description: as §1, §2, §3
# [2] = tested on: A. baumannii (ATCC 17978); test: Checkerboard potentiation assay with novobiocin; format: cell-based; settings: with novobiocin
# Description: as §1, §2
# A. baumannii ATCC 17978 [3] = settings: murine systemic A. baumannii infection, Stokes et al. 2017; cited from earlier work
# LPS from E. coli EH100 = test: BODIPY-Cadaverine LPS displacement assay; format: binding; settings: BODIPY-cadaverine displacement from E. coli EH100 LPS
# Description: BODIPY-Cadaverine LPS displacement assay. The BODIPY-cadaverine LPS displacement assay was performed as previously described (Wood et al. 2004. Combinatorial Chemistry & High Throughput Screening, 7: 239-49; Klobucar et al. 2021. ACS Chemical Biology, 16: 929-42). A solution of BODIPY-cadaverine (2.25 μM) and LPS from E. coli EH100 (5.25 μM) in Tris-HCl buffer (50 mM, pH 7.4) was prepared. 0.5 μL of compound and 49.5 μL of the Tris-HCl buffer with BODIPY-cadaverine and LPS solution were added to a Corning nonbinding surface black 384-well polystyrene plate. Fluorescence intensity was measured immediately with an excitation wavelength of 580 nm and an emission wavelength of 620 nm. EC50 values were calculated using a three-parameter logistic curve in GraphPad Prism 9.
# A. baumannii ATCC 17978 [4] = test: Systemic A. baumannii murine infection model; format: in vivo, mouse
# Description: Mouse infection models. Animal experiments were conducted according to guidelines set by the Canadian Council on Animal Care using protocols approved by the Animal Review Ethics Board at McMaster University under Animal Use Protocol #20-12-43. Before infection, mice were relocated at random from a housing cage to treatment or control cages. No animals were excluded from analyses, and blinding was considered unnecessary. Seven- to nine-week-old female C57BL/6 mice (Charles River) were infected intraperitoneally with ˜2×10^6 CFU of A. baumannii ATCC 17978, with 5% porcine mucin (Sigma-Aldrich). Infections were allowed to establish for 2 h, and treatments were administered intraperitoneally. For the survival study, the clinical endpoint was determined using a five-point body condition score analyzing weight loss, decrease in body temperature, respiratory distress, hampered mobility and hunched posture. Experimental endpoint was defined as five days post-infection for mice not reaching clinical endpoint. For CFU/mL enumeration, animals were infected as described above and euthanized 6 h post-infection, and blood was collected into sterile 2 ml heparinized tubes (BD Scientific) serially diluted in PBS and plated onto solid LB. Plates were incubated overnight at 37° C., and colonies were quantified to determine bacterial load.
# This was directly compared to the activity of P35 and P36 in this model (all administered at 10 mg/kg) in combination with novobiocin (50 mg/kg).
# For this experiment the same A. baumannii infection model was used, however, endpoint was defined as 6 h post-infection, at which point blood was collected for CFU/mL enumeration (FIG. 2b).
# [5] = HEK293 cytotoxicity assay (Cell Titer Glo); format: cell-based; settings: human, HEK293 cells (ATCC CRL 1573), 48 h treatment, Cell Titer Glo; called AC50 in the text; read-out: HEK293T Cytotoxicity (IC50, μg/mL)
# Description: Cytotoxicity Assays. HEK293 (ATCC CRL 1573) cells were left to adhere for 18 h at 7.5×10^3 cells per well in DMEM containing 10% FBS and 2 mM L-glutamine. Compound was added directly into the well. After 48 h of treatment Promega Cell Titer Glo 2.0® was added, shaken for 10 min, and luminescence read (Biotek Neo). AC50 values were calculated using a four-parameter logistic curve in GraphPad Prism 9.
# Focusing on only the analogs that retained synergistic activity with novobiocin (FICI≤0.5), half-maximal activity (AC50) values were calculated against HEK293 cells using a CellTiter-Glo® based assay to approximate cell viability. […] Specifically, the FICI value for both P35 and P36 was 0.094 against A. baumannii, while their AC50 values were 235 μg/mL and 200 μg/mL, respectively.
# [6] = Pharmacokinetic analysis after single intravenous dose
# Description: (§4) Plasma samples were taken from 3 mice per time point (5, 15, 30 min; 1, 2, 4, 6 and 8 h post-dose). An aliquot of 2 μL sample was protein precipitated with 60 μL methanol, the mixture was vortex-mixed well and centrifuged at 13000 rpm for 10 min at 4° C. 2 μL supernatant was injected for LC-MS/MS analysis. The mean plasma concentration and the standard deviation from all 3 animals within each time point were calculated. PK parameters were calculated with a non-compartmental analysis. The mean plasma concentrations from all 3 mice at each time point were used in the calculations.
# in vivo = settings: female, C57BL/6, mouse, plasma, iv, 1 mg/kg
# Description: as §4
smiles,measurement,setting,value
"N=C(N)c1ccc(OCCCCCOc2ccc(C(=N)N)cc2)cc1 [Pentamidine, pentamidine, reference compound]",Hemolysis of human blood,human red blood cells,Neither compound was hemolytic
same,AC50,HepG2 cells,> 150 µM
same,AC50 at 72 h,"in vitro; HepG2 viability / cell cycle arrest AC50, HepG2, 72 h incubation",< 0.293 µM
same,AC50 at 72 h,in vitro; Nuclear Size AC50 (μM),2.28 µM
same,AC50 at 72 h,in vitro; Phospholipidosis AC50 (μM),> 150 µM
same,FICI KP,[1],0.375
same,FICI PA,P. aeruginosa (PA01),0.75
same,FICI AB,[2],0.25
same,Animals rescued in combination with novobiocin (previous work),A. baumannii ATCC 17978 [3],100%
same,"LPS Displacement (EC50, μg/mL)",LPS from E. coli EH100,231 µg/mL
same,Reduction in blood CFU/mL in combination with novobiocin,"A. baumannii ATCC 17978 [4]; 10 mg/kg + 50 mg/kg novobiocin, 6 h post-infection",2.08 log10
same,Animals rescued in combination with novobiocin,"A. baumannii ATCC 17978 [4]; 10 mg/kg analog + 50 mg/kg novobiocin i.p. 2 h post-infection, endpoint 5 days",100%
same,IC50 at 48 h,[5],73 µg/mL
same,Adverse effects after single intravenous dose,"[6]; female C57BL/6 mice, 1 mg/kg i.v. in water",no adverse effects
same,AUCExtra (%),"[6]; mouse, 1 mg/kg IV",2.76%
same,AUMCExtra (%),"[6]; mouse, 1 mg/kg IV",45.8%
same,Tlast,"[6]; mouse, 1 mg/kg IV",4.00 h
same,AUC(0-inf),in vivo,119 ng·h/mL
same,AUC(0-t),in vivo,116 ng·h/mL
same,C0,in vivo,1260 ng/mL
same,MRT inf,in vivo,24.7 min
same,MRT last,in vivo,13.7 min
same,Vd,in vivo,3.45 L/kg
same,clearance,in vivo,140 mL/min/kg
same,half-life,in vivo,118 min

# — patent US20250382261A1 (The Broad Institute, Inc., priority 2021, published 2025)
